In brackets after ≈: the same amount, converted by molar mass. Like-named read-outs stand apart in the source and are kept apart here.
Key:
Vibrio cholerae SG24 (1) = assay: Broth microdilution MIC/MBC; assay type: cell-based; details: for MBC / MIC: Vibrio cholerae; for MBC/MIC: Vibrio cholerae SG24 (1); for MIC: 24 h
Description: (§1) A total of six bacterial strains were tested for their susceptibility to compounds and these strains were taken from our laboratory collection (kindly provided by Dr. T. Ramamurthy, NICED, Kolkata). Among the clinical strains of Vibrio cholerae used in this study, strains NB2 and SG24(1) belonged to O1 and O139 serotypes, respectively. […] The bacterial strains were maintained on agar slant at 4 °C and subcultured on a fresh appropriate agar plates 24 h prior to any antibacterial test. The Mueller Hinton Agar (MHA) was used for the activation of bacteria. The Mueller Hinton Broth (MHB) and nutrient agar (Hi-Media) were used for the MIC and MBC determinations respectively.
(§2) MIC values were determined by a broth micro-dilution method as described earlier [14] with slight modifications. […] Then, 100 μl of each concentration was added in each well (96-well microplate) containing 95 μl of MHB and 5 μl of inoculums (at 1.5 × 10^6 CFU/ml) for final concentrations varying from 0.25–512 μg/ml. […] The plates were covered with sterile lids, then the contents of each well were mixed using a shaker and incubated at 35 °C for 24 h. […] MIC values were defined as the lowest sample concentrations that prevented this change in color indicating an inhibition of visible growth. Viable microorganisms reduced the yellow dye to a pink color. […] The lowest concentrations that yielded no growth after this subculturing were taken as the MBC values [15]. All the analyses were carried out in triplicate.

Vibrio cholerae CO6 = assay: Broth microdilution MIC/MBC; assay type: cell-based; details: for MBC / MBC/MIC: CO6; for MIC: CO6, 24 h
Description: as §1, §2

Vibrio cholerae NB2 = assay: Broth microdilution MIC/MBC; assay type: cell-based; details: for MBC / MBC/MIC: NB2
Description: as §1, §2

Vibrio cholerae PC2 = assay: Broth microdilution MIC/MBC; assay type: cell-based; details: for MBC / MBC/MIC: PC2
Description: as §1, §2

Shigella flexneri SDINT = assay: microbe, parasite or virus in culture; assay type: cell-based
Description: as §1, §2

[1] = test system: Staphylococcus aureus ATCC 25923; assay: microbe, parasite or virus in culture; assay type: cell-based; details: for MBC / MIC: Staphylococcus aureus; for MBC: ATCC25923; for MIC: ATCC25923, 24 h
Description: as §1, §2

[2] = test system: Vibrio cholerae, Shigella flexneri and Staphylococcus aureus; assay: Broth microdilution MIC/MBC, summary over all six tested strains; assay type: cell-based; details: for MIC: read-out: antibacterial activity class (pure compounds)
Description: as §1, §2

[3] = DPPH free radical scavenging assay; details: 30 min, room temperature, 517 nm
Description: The free radical scavenging activity of extracts as well as most of their isolated compounds was performed according to Brand-Williams et al. with slight modifications. Briefly, different concentrations (10 to 2000 μg/ml) of extracts/compounds and vitamin C (positive control) were thoroughly mixed with 3 ml of methanolic DPPH solution (20 mg/l) in test-tubes and the resulting solution was kept standing for 30 min at room temperature before the optical density (OD) was measured at 517 nm. The percentage radical scavenging activity was calculated from the following formula: % scavenging [DPPH] = [(A0–A1)/A0] × 100 [16]. Where A0 was the absorbance of the negative control (methanolic DPPH solution) and A1 was the absorbance in the presence of the samples. IC50 value was determined from the graph obtained using standard vitamin C by using the “y = mx + c” formula from the slope of the graph. All the analyses were carried out in triplicate.

[4] = Gallic acid equivalent antioxidant capacity (GAEAC) assay; details: ABTS/laccase, 420 nm, 240 s
Description: The GAEAC test was done as previously described [17] with slight modifications. In a quartz cuvette, to 950 μl acetate buffer (pH =5.0, 100 mM), the following were added: 20 μl laccase (1 mM stock solution), 20 μl test sample, 10 μl ABTS (2,2’-azinobis(3-ethylbenzothiazoline-6-sulfonic acid) (74 mM stock solution). The laccase were purified from Sclerotinia sclerotiorum according to the protocol described [18]. The sample concentrations in the assay mixture were 800, 400, 200, 100, 10 μg/ml for the extracts and 200, 100, 50, 25, 125.5 μg/ml for the isolated compounds. The content of the generated ABTS^●+ radical was measured at 420 nm after 240 s reaction time and was converted to gallic acid equivalents by the use of a calibration curve (Pearson’s correlation coefficient: r = 0.996) constructed with 0, 4, 10, 14, 28, 56, 84 μM gallic acid standards rather than Trolox. Experiments were done in triplicate.

Row | SMILES | MBC (Vibrio cholerae SG24 (1)) [µg/mL] | MIC (Vibrio cholerae SG24 (1)) [µg/mL] | MBC (Vibrio cholerae CO6) [µg/mL] | MBC/MIC (Vibrio cholerae CO6) | MIC (Vibrio cholerae CO6) [µg/mL] | MBC (Vibrio cholerae NB2; Vibrio cholerae) [µg/mL] | MIC (Vibrio cholerae NB2; Vibrio cholerae, NB2, 24 h) [µg/mL] | MBC (Vibrio cholerae PC2; Vibrio cholerae) [µg/mL] | MIC (Vibrio cholerae PC2; Vibrio cholerae, PC2, 24 h) [µg/mL] | MBC (Shigella flexneri SDINT; Shigella flexneri) [µg/mL] | MIC (Shigella flexneri SDINT; Shigella flexneri, 24 h) [µg/mL] | MBC/MIC [1] | MBC [1] [µg/mL] | MIC [1] [µg/mL] | MBC/MIC (Vibrio cholerae NB2; Vibrio cholerae) | MBC/MIC (Vibrio cholerae PC2; Vibrio cholerae) | MBC/MIC (Shigella flexneri SDINT) | MIC [2] [µg/mL] | further results
1 | CC1(C)S[C@@H]2[C@H](NC(=O)[C@H](N)c3ccccc3)C(=O)N2[C@H]1C(=O)O [Ampicillin, reference compound] | 16 (≈ 45.8 µM) | 16 (≈ 45.8 µM) | 16 (≈ 45.8 µM) | 1 | 16 (≈ 45.8 µM) | > 512 | > 512 | > 512 | > 512 | > 512 | > 512 | 1 | 8 (≈ 22.9 µM) | 8 (≈ 22.9 µM) | – | – | – | – | MBC/MIC (Vibrio cholerae SG24 (1)): 1; MIC (Vibrio cholerae NB2; Vibrio cholerae NB2, 35 °C, 24 h): not active; MIC (Vibrio cholerae PC2; Vibrio cholerae PC2, 35 °C, 24 h): not active; MIC (Shigella flexneri SDINT): not active
2 | COC(=O)C1=CO[C@@H](O)[C@@H]2C(COC(=O)C3=CO[C@@H](O)[C@@H]4C(COC(C)=O)=CC[C@H]34)=CC[C@H]12 [Compound 1, canthiumoside 1] | 128 (≈ 277 µM) | 64 (≈ 138 µM) | 64 (≈ 138 µM) | 1 | 64 (≈ 138 µM) | 64 (≈ 138 µM) | 64 (≈ 138 µM) | 64 (≈ 138 µM) | 64 (≈ 138 µM) | 64 (≈ 138 µM) | 32 (≈ 69.2 µM) | 1 | 32 (≈ 69.2 µM) | 32 (≈ 69.2 µM) | 1 | 1 | 2 | 10 to 100 (≈ 21.6 to 216 µM) | MBC/MIC (Vibrio cholerae SG24 (1)): 2; EC50 (concentration scavenging 50% of DPPH radical) [3]: 2.03 µg/mL; GAEAC (gallic acid equivalent antioxidant capacity) [4]: 79.82 µg/mL; GAEAC (gallic acid equivalent antioxidant capacity) ([4]; listed as Canthiumoside 1): 79.82 to 92.35 µg/mL
3 | COC(=O)C1=COC(O)C2C(COC(=O)C3=COC(OC4OC(CO)C(O)C(O)C4O)C4C(COC(C)=O)=CCC34)=CCC12 (stereo not drawn) [Compound 2, canthiumoside 2] | > 256 | 256 (≈ 410 µM) | 256 (≈ 410 µM) | 2 | 128 (≈ 205 µM) | 128 (≈ 205 µM) | 128 (≈ 205 µM) | 256 (≈ 410 µM) | 256 (≈ 410 µM) | 256 (≈ 410 µM) | 128 (≈ 205 µM) | 1 | 64 (≈ 102 µM) | 64 (≈ 102 µM) | 1 | 1 | 2 | > 100 | –
4 | COC(=O)C1=COC(OC2OC(CO)C(O)C(O)C2O)C2C(COC(=O)C3=COC(OC4OC(CO)C(O)C(O)C4O)C4C(COC(C)=O)=CCC34)=CCC12 (stereo not drawn) [Compound 3, canthiumoside 3] | – | > 256 | 256 (≈ 325 µM) | 2 | 128 (≈ 163 µM) | 256 (≈ 325 µM) | 256 (≈ 325 µM) | > 256 | 256 (≈ 325 µM) | > 256 | 256 (≈ 325 µM) | – | > 256 | 256 (≈ 325 µM) | 1 | – | – | > 100 | tested organisms inhibited [2]: 83.33%
5 | COC(=O)C1=COC(OC2OC(CO)C(O)C(O)C2O)C2C(COC(=O)C3=COC(OC4OC(CO)C(O)C(O)C4O)C4C(CO)=CCC34)=CCC12 (stereo not drawn) [Compound 4, canthiumoside 4] | – | – | – | – | – | – | – | – | – | – | – | – | – | – | – | – | – | – | EC50 (concentration scavenging 50% of DPPH radical) [3]: 178.57 µg/mL; GAEAC (gallic acid equivalent antioxidant capacity) [4]: 22.63 µg/mL
6 | COC(=O)C1=COC(OC2OC(CO)C(O)C(O)C2O)C2C(COC(=O)C3=COC(OC(C)=O)C4C(C)CCC34)=CCC12 (stereo not drawn) [Compound 5a, canthiumoside 5a] | > 256 | 256 (≈ 419 µM) | 256 (≈ 419 µM) | 2 | 128 (≈ 210 µM) | 128 (≈ 210 µM) | 128 (≈ 210 µM) | 256 (≈ 419 µM) | 128 (≈ 210 µM) | 128 (≈ 210 µM) | 128 (≈ 210 µM) | 1 | 128 (≈ 210 µM) | 128 (≈ 210 µM) | 1 | 2 | 1 | > 100 | –
7 | COC(=O)C1=CO[C@@H](O)[C@H]2[C@@H]1CC[C@]2(C)O [Compound 7, linearin] | – | – | – | – | – | – | – | – | – | – | – | – | – | – | – | – | – | – | MIC (range over the tested bacteria) ([2]; range over all tested strains): 8 to 64 µg/mL
8 | COC(=O)C1=COC(OC2OC(CO)C(O)C(O)C2O)C2C1CCC2(C)O (stereo not drawn) [Compound 8, mussaenoside] | > 256 | 256 (≈ 656 µM) | 256 (≈ 656 µM) | 1 | 256 (≈ 656 µM) | > 256 | 128 (≈ 328 µM) | 256 (≈ 656 µM) | 128 (≈ 328 µM) | 256 (≈ 656 µM) | 128 (≈ 328 µM) | 2 | 128 (≈ 328 µM) | 64 (≈ 164 µM) | – | 2 | 2 | > 100 | –
9 | COC(=O)C1=CO[C@@H](O[C@@H]2O[C@H](CO)[C@@H](O)[C@H](O)[C@H]2O)[C@H]2[C@@H]1[C@H](O)C[C@]2(C)O [Compound 9, shanzhiside methyl ester] | 128 (≈ 315 µM) | 128 (≈ 315 µM) | > 256 | – | 128 (≈ 315 µM) | 128 (≈ 315 µM) | 128 (≈ 315 µM) | 256 (≈ 630 µM) | 256 (≈ 630 µM) | 256 (≈ 630 µM) | 128 (≈ 315 µM) | 2 | 256 (≈ 630 µM) | 128 (≈ 315 µM) | 1 | 1 | 2 | > 100 | MBC/MIC (Vibrio cholerae SG24 (1)): 1
10 | COC(=O)C1=CO[C@@H](O)[C@H]2[C@@H]1[C@H](O)C[C@]2(C)O [compound 6] | 256 (≈ 1050 µM) | 128 (≈ 524 µM) | 256 (≈ 1050 µM) | – | 256 (≈ 1050 µM) | 256 (≈ 1050 µM) | 256 (≈ 1050 µM) | 256 (≈ 1050 µM) | 128 (≈ 524 µM) | 64 (≈ 262 µM) | 32 (≈ 131 µM) | – | 64 (≈ 262 µM) | 32 (≈ 131 µM) | – | – | – | > 100 | –
11 | COC(=O)C1=CO[C@@H](O)[C@H]2[C@@H]1CC[C@]2(C)O [compound 7] | 64 (≈ 280 µM) | 32 (≈ 140 µM) | 128 (≈ 561 µM) | – | 64 (≈ 280 µM) | 32 (≈ 140 µM) | 32 (≈ 140 µM) | 32 (≈ 140 µM) | 32 (≈ 140 µM) | 16 (≈ 70.1 µM) | 16 (≈ 70.1 µM) | – | 8 (≈ 35.1 µM) | 8 (≈ 35.1 µM) | – | – | – | 10 to 100 (≈ 43.8 to 438 µM) | –
12 | O=C1O[C@H]([C@@H](O)CO)C(O)=C1O [vitamin C, reference compound] | – | – | – | – | – | – | – | – | – | – | – | – | – | – | – | – | – | – | EC50 (concentration scavenging 50% of DPPH radical) [3]: 1.74 µg/mL

— publication PMC5217663, “Iridoids from Canthium subcordatum iso-butanol fraction with potent biological activities” (BMC Complementary and Alternative Medicine, 2017)
